Laboratory results published in ChEMBL document CHEMBL5352417, “Design, synthesis, and biological evaluation of aromatic tertiary amine derivatives as selective butyrylcholinesterase inhibitors for the treatment of Alzheimer's disease” (Eur J Med Chem, 2022).
Calls of active or inactive are those of the source. The rule behind the calls is not given here.

What was measured:
[1] = molecular target: Acetylcholinesterase (Electrophorus electricus) (UniProt O42275); assay: Inhibition of electric eel AchE using acetylthiocholine iodide as substrate at <10 uM measured for 3 mins by Ellman's method relative to control
Acetylcholinesterase (Electrophorus electricus), sequence (O42275 24-633 limits assumed): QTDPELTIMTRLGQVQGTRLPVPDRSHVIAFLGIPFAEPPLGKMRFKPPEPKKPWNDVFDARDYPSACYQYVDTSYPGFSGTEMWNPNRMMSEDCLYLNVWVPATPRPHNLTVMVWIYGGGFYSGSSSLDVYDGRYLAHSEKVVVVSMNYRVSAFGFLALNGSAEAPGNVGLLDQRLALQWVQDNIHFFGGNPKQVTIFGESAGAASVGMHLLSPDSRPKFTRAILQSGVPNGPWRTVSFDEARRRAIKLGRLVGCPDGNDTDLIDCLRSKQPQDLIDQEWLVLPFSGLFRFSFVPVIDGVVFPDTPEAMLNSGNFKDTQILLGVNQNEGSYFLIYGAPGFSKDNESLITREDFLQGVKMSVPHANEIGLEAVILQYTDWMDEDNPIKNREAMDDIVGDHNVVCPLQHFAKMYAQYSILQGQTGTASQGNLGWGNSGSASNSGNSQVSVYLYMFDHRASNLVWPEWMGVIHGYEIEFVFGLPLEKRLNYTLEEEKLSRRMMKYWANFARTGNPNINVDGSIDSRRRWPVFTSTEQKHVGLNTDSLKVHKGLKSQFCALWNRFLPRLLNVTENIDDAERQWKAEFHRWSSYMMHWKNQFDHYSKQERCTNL

[2] = molecular target: Cholinesterase (Equus caballus) (UniProt P81908); assay: Inhibition of horse serum BuChE using butyrylthiocholine iodide as substrate at <10 uM measured for 3 mins by Ellman's method relative to control; type: cell-free
Cholinesterase (Equus caballus), sequence (P81908 whole entry): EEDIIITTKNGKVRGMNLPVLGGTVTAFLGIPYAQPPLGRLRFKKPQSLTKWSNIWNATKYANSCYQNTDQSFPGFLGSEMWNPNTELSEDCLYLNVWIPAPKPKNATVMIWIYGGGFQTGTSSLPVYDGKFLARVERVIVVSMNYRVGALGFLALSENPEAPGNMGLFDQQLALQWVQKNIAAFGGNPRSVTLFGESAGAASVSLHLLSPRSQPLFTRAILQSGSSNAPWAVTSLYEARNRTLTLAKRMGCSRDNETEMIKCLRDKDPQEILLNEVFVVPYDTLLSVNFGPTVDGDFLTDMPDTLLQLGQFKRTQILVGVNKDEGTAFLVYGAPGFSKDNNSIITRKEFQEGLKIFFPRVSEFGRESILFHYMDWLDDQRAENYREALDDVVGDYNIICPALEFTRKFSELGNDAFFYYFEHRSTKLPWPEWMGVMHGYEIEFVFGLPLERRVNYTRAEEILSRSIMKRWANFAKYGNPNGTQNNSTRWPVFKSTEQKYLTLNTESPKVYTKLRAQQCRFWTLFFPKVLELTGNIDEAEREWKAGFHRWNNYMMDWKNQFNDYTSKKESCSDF

Cholinesterase [3] = molecular target: Cholinesterase (Equus caballus, UniProt P81908); assay: Inhibition of horse serum BuChE using butyrylthiocholine iodide as substrate measured for 3 mins by Ellman's method; type: cell-free
Cholinesterase (Equus caballus, UniProt P81908), sequence (P81908 whole entry): as above

Cholinesterase [4] = molecular target: T1, Cholinesterase (Homo sapiens, UniProt P06276); assay: Inhibition of human BChE using butyrylthiocholine iodide as substrate measured for 3 mins by Ellman's method
T1 sequence (P06276 whole entry): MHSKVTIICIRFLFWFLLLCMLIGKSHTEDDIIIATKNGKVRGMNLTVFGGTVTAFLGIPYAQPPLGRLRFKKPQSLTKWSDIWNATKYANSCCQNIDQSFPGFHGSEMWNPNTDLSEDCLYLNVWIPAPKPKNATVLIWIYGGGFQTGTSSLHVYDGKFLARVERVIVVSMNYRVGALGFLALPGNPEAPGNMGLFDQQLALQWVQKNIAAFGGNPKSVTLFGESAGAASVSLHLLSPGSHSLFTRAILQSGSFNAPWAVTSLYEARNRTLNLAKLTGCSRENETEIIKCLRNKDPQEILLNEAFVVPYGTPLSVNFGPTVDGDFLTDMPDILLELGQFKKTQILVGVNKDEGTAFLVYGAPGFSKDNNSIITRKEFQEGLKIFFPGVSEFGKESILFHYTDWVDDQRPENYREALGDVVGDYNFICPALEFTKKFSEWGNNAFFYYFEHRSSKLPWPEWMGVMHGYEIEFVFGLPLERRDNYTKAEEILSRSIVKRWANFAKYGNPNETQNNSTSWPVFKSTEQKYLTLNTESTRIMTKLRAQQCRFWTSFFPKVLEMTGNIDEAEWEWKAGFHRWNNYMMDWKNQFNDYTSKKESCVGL

Cholinesterase [5] = molecular target: T1, Cholinesterase; assay: Non-competitive inhibition of BChE (unknown origin) using butyrylthiocholine iodide as substrate upto 400 nM measured for 5 mins by Lineweaver-Burk plot analysis
[6] = Effective permeability of compound at 25 ug/ml incubated for 18 hrs by PAMPA-BBB assay; type: ADME; details: dose 25 µg/ml, read-out: Peff
[7] = Neurotoxicity against rat PC12 cells incubated for 24 hrs by MTT assay; type: toxicity, cell-based, PC-12; details: read-out: LD50
[8] = Neurotoxicity against human SH-SY5Y cells assessed as survival rate incubated for 24 hrs by MTT assay relative to control; type: toxicity, cell-based; set-up: concentration or dose not given beside the values; details: read-out: Survival
[9] = Neurotoxicity against mouse BV-2 cells incubated for 24 hrs by MTT assay; type: toxicity, cell-based; details: read-out: LD50
[10] = Neurotoxicity against mouse HT-22 cells incubated for 24 hrs by MTT assay; type: toxicity, cell-based; details: read-out: LD50
SH-SY5Y = assay: Neuroprotective activity against amyloid beta (1 to 42)-induced injury in human SH-SY5Y cells assessed as cell viability by MTT assay; type: functional, cell-based; details: dose 0.5-50 µM
[11] = Acute toxicity in fasted ICR mouse assessed as animal death at 1 g/kg, po followed by food supply after 2 hrs post compound administration measured for 14 days; type: organism-based; details: in vivo, 1000 mg/kg, 336 h, time 14 day
[12] = Acute toxicity in fasted ICR mouse assessed as change in animal growth at 1 g/kg, po administered on day 1 followed by food supply after 2 hrs post compound administration measured after few days after first day administration; type: organism-based; details: in vivo, 1000 mg/kg
[13] = Acute toxicity in fasted ICR mouse assessed as obvious toxicity at 1 g/kg, po followed by food supply after 2 hrs post compound administration measured for 14 days; type: organism-based; details: in vivo, 1000 mg/kg, 336 h, time 14 day
Mus musculus [14] = assay: Antialzheimer activity against amyloid beta (1 to 42)-induced mouse model of cognitive dysfunction assessed as latency time at 15 mg/kg, po measured for 14 days by Morris Water maze method; type: functional, ICR; details: time 14 day
Mus musculus [15] = assay: Antialzheimer activity against amyloid beta (1 to 42)-induced mouse model of cognitive dysfunction assessed as reaching target platform at 15 mg/kg, po measured for 14 days by Morris Water maze method; type: functional, organism-based; details: ICR, time 14.0 day

Q: Which inhibition [1] does the source give for `Cc1ccccc1NC(=O)CN(Cc1ccc2ccccc2c1)CC(C)C` here?
A: 22.2%

Q: And the inhibition [2]?
A: 94.3%

Q: And the IC50 (Cholinesterase [3])?
A: 0.22 µM

Q: And the IC50 (Cholinesterase [4])?
A: 0.016 µM

Q: What about the inhibition (Cholinesterase [5]) of the same compound?
A: Active

Q: What about the Papp at 18 h, 25 ug/ml [6] of the same compound?
A: 13.1 ×10⁻⁶ cm/s

Q: What about the CC50 at 24 h [7] of the same compound?
A: 78.8 µM

Q: What about the viability at 24 h [8] of the same compound?
A: 47.8%

Q: What about the CC50 at 24 h [9] of the same compound?
A: 39.3 µM

Q: What about the CC50 at 24 h [10] of the same compound?
A: 18.9 µM

Q: And the Activity (SH-SY5Y)?
A: Dose-Dependent Effect

Q: What about the Activity [11] of the same compound?
A: Non-Toxic

Q: What about the Activity [12] of the same compound?
A: Toxic

Q: What about the Activity [13] of the same compound?
A: Non-Toxic

Q: What about the Time (Mus musculus [14]) of the same compound?
A: 11.4 s

Q: What about the Activity (Mus musculus [15]) of the same compound?
A: Active
